Laboratory results taken from US20260138961A1, “MODULATORS OF MITOCHONDRIAL DNA REPLICATION” (Pretzel Therapeutics, Inc., priority 2022, published 2026).

Molecular target: T1, POLγA:G848S (Homo sapiens, UniProt P54098, G848S)
T1 sequence (P54098 1-1239 G848S): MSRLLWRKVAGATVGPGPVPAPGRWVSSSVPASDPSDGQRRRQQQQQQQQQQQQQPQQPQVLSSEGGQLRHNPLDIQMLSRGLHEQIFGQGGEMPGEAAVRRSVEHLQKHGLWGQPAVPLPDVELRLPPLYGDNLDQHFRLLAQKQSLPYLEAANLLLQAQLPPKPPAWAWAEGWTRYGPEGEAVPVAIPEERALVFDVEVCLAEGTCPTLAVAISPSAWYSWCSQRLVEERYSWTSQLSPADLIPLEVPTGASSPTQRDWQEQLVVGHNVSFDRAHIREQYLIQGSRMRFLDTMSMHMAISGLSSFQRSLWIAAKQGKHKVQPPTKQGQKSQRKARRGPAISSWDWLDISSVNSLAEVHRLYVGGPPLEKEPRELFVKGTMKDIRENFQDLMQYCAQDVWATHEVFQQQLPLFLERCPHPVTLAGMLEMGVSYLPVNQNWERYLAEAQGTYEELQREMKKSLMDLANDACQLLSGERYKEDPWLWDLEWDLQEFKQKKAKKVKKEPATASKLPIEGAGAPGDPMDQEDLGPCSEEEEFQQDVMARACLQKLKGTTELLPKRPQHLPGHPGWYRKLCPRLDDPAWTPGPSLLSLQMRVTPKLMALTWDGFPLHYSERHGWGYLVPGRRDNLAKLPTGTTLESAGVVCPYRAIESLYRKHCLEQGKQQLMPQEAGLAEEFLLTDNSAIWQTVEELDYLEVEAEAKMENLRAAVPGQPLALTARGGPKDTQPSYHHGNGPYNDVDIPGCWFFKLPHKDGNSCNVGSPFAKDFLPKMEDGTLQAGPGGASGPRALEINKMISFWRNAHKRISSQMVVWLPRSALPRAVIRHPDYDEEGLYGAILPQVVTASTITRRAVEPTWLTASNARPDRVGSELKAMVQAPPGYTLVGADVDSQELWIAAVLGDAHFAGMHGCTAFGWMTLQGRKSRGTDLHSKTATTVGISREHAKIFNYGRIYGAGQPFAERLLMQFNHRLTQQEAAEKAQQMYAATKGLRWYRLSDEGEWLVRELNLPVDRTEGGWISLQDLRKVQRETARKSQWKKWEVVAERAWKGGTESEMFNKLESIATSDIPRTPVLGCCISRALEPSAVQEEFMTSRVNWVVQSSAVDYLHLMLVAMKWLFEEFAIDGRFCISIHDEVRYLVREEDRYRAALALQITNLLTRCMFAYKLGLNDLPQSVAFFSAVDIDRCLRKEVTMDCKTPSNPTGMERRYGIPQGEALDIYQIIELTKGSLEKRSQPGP
T1 sequence (Q9UHN1 1-485 partner): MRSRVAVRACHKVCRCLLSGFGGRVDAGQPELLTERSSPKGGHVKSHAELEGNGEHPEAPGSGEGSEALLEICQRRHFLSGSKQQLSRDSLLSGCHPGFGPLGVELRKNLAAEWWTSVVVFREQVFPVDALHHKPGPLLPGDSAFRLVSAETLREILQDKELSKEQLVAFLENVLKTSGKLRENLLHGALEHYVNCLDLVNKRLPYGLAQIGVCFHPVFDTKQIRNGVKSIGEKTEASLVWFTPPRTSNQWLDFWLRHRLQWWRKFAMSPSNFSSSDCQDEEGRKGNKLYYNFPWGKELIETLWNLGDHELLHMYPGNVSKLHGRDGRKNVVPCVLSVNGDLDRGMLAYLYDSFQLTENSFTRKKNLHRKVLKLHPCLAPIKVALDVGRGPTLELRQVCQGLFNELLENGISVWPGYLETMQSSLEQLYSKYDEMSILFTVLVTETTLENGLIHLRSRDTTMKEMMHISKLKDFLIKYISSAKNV
Assay: DNA polymerization assay, POLγA:G848S mutant
Type: biochemical
Details: stimulation of polymerase activity, primed M13mp18 ssDNA, 37° C. 2 hours; read-out: G848S AC50

SMILES | AC50
Cc1ccc(C)c(S(=O)(=O)Nc2cccc(C(=O)N3CCSCC3)c2)c1 [Example 24, 2,5-dimethyl-N-(3-(thiomorpholine-4-carbonyl)phenyl)benzenesulfonamide] | > 100 µM
Cc1ccc(C)c(S(=O)(=O)Nc2cccc(C(=O)N(C)Cc3ccccc3)c2)c1 [Example 26, N-benzyl-3-((2,5-dimethylphenyl)sulfonamido)-N-methylbenzamide] | 50 µM
Cc1cc(S(=O)(=O)Nc2cn(-c3ccccc3)cn2)c(C)cc1Cl [Example 169, 4-chloro-2,5-dimethyl-N-(1-phenyl-1H-imidazol-4-yl)benzenesulfonamide] | > 100 µM
Cc1cc(-c2cccc(NS(=O)(=O)c3cc(C)c(Cl)cc3C)c2)n[nH]1 [Example 66, 4-chloro-2,5-dimethyl-N-(3-(5-methyl-1H-pyrazol-3-yl)phenyl)benzenesulfonamide] | 1 µM
Cc1cc(S(=O)(=O)Nc2nc(-c3ccccc3)co2)c(C)cc1Cl [Example 157, 4-chloro-2,5-dimethyl-N-(4-phenyloxazol-2-yl)benzenesulfonamide] | > 100 µM
Cc1ccc(C)c(S(=O)(=O)Nc2cccc(C(=O)N(C)CC3CC3)c2)c1 [Example 33, N-(cyclopropylmethyl)-3-((2,5-dimethylphenyl)sulfonamido)-N-methylbenzamide] | 56 µM
Cc1cc(S(=O)(=O)Nc2csc(-c3ccncc3)n2)c(C)cc1Cl [Example 176, 4-chloro-2,5-dimethyl-N-(2-(pyridin-4-yl)thiazol-4-yl)benzenesulfonamide] | 0.4 µM
Cc1cc(S(=O)(=O)Nc2cn(Cc3ccccc3)cn2)c(C)cc1Cl [Example 168, N-(1-benzyl-1H-imidazol-4-yl)-4-chloro-2,5-dimethylbenzenesulfonamide] | > 100 µM
CC(=O)N1CCC(c2nc(NS(=O)(=O)c3cc(C)c(Cl)cc3C)cs2)CC1 [Example 163, N-(2-(1-acetylpiperidin-4-yl)thiazol-4-yl)-4-chloro-2,5-dimethylbenzenesulfonamide] | 37 µM
COCCN(C)C(=O)c1cccc(NS(=O)(=O)c2cc(C)c(Cl)cc2C)c1 [Example 58, 3-((4-chloro-2,5-dimethylphenyl)sulfonamido)-N-(2-methoxyethyl)-N-methylbenzamide] | 46 µM
Cc1nc2cc(NS(=O)(=O)c3cc(C)c(Cl)cc3C)ccc2s1 [Example 71, 4-chloro-2,5-dimethyl-N-(2-methylbenzo[d]thiazol-5-yl)benzenesulfonamide] | > 100 µM
Cc1c(Cl)cccc1S(=O)(=O)Nc1csc(-c2ccccc2)n1 [Example 154, 3-chloro-2-methyl-N-(2-phenylthiazol-4-yl)benzenesulfonamide] | > 100 µM
Cc1ccc(C)c(S(=O)(=O)Nc2cccc(C(N)=O)c2)c1 [Example 27, 3-((2,5-dimethylphenyl)sulfonamido)benzamide] | > 100 µM
Cc1cc(S(=O)(=O)Nc2cccc(C(=O)NCCO)c2)c(C)cc1Cl [Example 53, 3-((4-chloro-2,5-dimethylphenyl)sulfonamido)-N-(2-hydroxyethyl)benzamide] | 63 µM
O=S(=O)(Nc1cccc(-c2nccs2)c1)c1ccc(Cl)cc1 [Example 59, 4-chloro-N-(3-(thiazol-2-yl)phenyl)benzenesulfonamide] | > 100 µM
Cc1ccc(C)c(S(=O)(=O)Nc2cccc(C(=O)N3CCCCCC3)c2)c1 [Example 32, N-(3-(azepane-1-carbonyl)phenyl)-2,5-dimethylbenzenesulfonamide] | 35 µM
Cc1cc(S(=O)(=O)Nc2cnn(-c3ccccc3)n2)c(C)cc1Cl [Example 171, 4-chloro-2,5-dimethyl-N-(2-phenyl-2H-1,2,3-triazol-4-yl)benzenesulfonamide] | > 10 µM
Cc1ccc(C)c(S(=O)(=O)Nc2cccc(C(=O)NCc3ccccc3)c2)c1 [Example 28, N-benzyl-3-((2,5-dimethylphenyl)sulfonamido)benzamide] | > 100 µM
Cc1ccc(C)c(S(=O)(=O)Nc2cccc(C(=O)N3CCOCC3)c2)c1 [Example 29, 2,5-dimethyl-N-(3-(morpholine-4-carbonyl)phenyl)benzenesulfonamide] | 33 µM
Cc1cc(S(=O)(=O)Nc2cn(C)c(-c3ccccc3)n2)c(C)cc1Cl [Example 170, 4-chloro-2,5-dimethyl-N-(1-methyl-2-phenyl-1H-imidazol-4-yl)benzenesulfonamide] | > 10 µM
Cc1cc(S(=O)(=O)Nc2ccc3ccn(C(C)C)c3c2)c(C)cc1Cl [Example 69, 4-chloro-N-(1-isopropyl-1H-indol-6-yl)-2,5-dimethylbenzenesulfonamide] | 14 µM
COc1ccccc1-c1nc(NS(=O)(=O)c2cc(C)c(Cl)cc2C)cs1 [Example 155, 4-chloro-N-(2-(2-methoxyphenyl)thiazol-4-yl)-2,5-dimethylbenzenesulfonamide] | 4 µM

Next, values leading:

AC50 | SMILES
13 µM | Cc1cc(S(=O)(=O)Nc2cccc(C(=O)N3CCCC34CC4)c2)c(C)cc1Cl [Example 162, N-(3-(4-azaspiro[2.4]heptane-4-carbonyl)phenyl)-4-chloro-2,5-dimethylbenzenesulfonamide]
> 100 µM | Cc1cc(S(=O)(=O)Nc2cccc(C(=O)N3CCC[C@H]3C)c2F)c(C)cc1Cl [Example 57, (R)-4-chloro-N-(2-fluoro-3-(2-methylpyrrolidine-1-carbonyl)phenyl)-2,5-dimethylbenzenesulfonamide]
> 100 µM | Cc1cc(NS(=O)(=O)c2cc(C)ccc2C)cc(C(=O)N2CCCC[C@H]2C)c1 [Example 42, (R)-2,5-dimethyl-N-(3-methyl-5-(2-methylpiperidine-1-carbonyl)phenyl)benzenesulfonamide]
> 100 µM | Cc1cc2c(NS(=O)(=O)c3cc(C)c(Cl)cc3C)cccc2[nH]1 [Example 37, 4-chloro-2,5-dimethyl-N-(2-methyl-1H-indol-4-yl)benzenesulfonamide]
14 µM | Cc1cc(S(=O)(=O)Nc2ccc(F)c(C(=O)N3CCC[C@H]3C)c2)c(C)cc1Cl [Example 49, (R)-4-chloro-N-(4-fluoro-3-(2-methylpyrrolidine-1-carbonyl)phenyl)-2,5-dimethylbenzenesulfonamide]
56 µM | Cc1cc(S(=O)(=O)Nc2cccc(C(=O)N(C)CCO)c2)c(C)cc1Cl [Example 56, 3-((4-chloro-2,5-dimethylphenyl)sulfonamido)-N-(2-hydoxyethyl)-N-methylbenzamide]
44 µM | Cc1cc(S(=O)(=O)Nc2cccc(C(=O)N[C@H](C)CO)c2)c(C)cc1Cl [Example 51, (R)-3-((4-chloro-2,5-dimethylphenyl)sulfonamido)-N-(1-hydroxypropan-2-yl)benzamide]
12 µM | CC[C@@H]1CCCN1C(=O)c1cccc(NS(=O)(=O)c2cc(C)c(Cl)cc2C)c1 [Example 65, (R)-4-chloro-N-(3-(2-ethylpyrrolidine-1-carbonyl)phenyl)-2,5-dimethylbenzenesulfonamide]
> 100 µM | Cc1cc(S(=O)(=O)Nc2cccc(C(=O)N3CCN(C)CC3)c2)c(C)cc1Cl [Example 52, 4-chloro-2,5-dimethyl-N-(3-(4-methylpiperazine-1-carbonyl)phenyl)benzenesulfonamide]
1 µM | Cc1cc(S(=O)(=O)Nc2csc(C(=O)N3CCC[C@@H]3C)n2)c(C)cc1Cl [Example 175, (S)-4-chloro-2,5-dimethyl-N-(2-(2-methylpyrrolidine-1-carbonyl)thiazol-4-yl)benzenesulfonamide]
0.6 µM | Cc1cc(S(=O)(=O)Nc2csc(C(=O)N3CCCC3)n2)c(C)cc1Cl [Example 166, 4-chloro-2,5-dimethyl-N-(2-(pyrrolidine-1-carbonyl)thiazol-4-yl)benzenesulfonamide]
